The record followed here is patent publication US11084800B2 (Achillion Pharmaceuticals, Inc., priority 2017, dated 2021).

Chain of Human Factor D (P00746 26-253): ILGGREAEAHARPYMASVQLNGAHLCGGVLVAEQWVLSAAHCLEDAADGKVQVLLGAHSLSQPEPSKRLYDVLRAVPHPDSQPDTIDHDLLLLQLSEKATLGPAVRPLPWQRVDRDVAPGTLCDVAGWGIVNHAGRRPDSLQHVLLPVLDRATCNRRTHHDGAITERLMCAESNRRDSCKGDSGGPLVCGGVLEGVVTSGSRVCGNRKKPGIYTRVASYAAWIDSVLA

One assay has as its target Human Factor D (Homo sapiens (Human), UniProt P00746). In words: Human Factor D Assay. Format: biochemical. The following applies: Factor D inhibition, assay of Example 10; read-out: IC5 (Stars). In outline:
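Serum-purified Factor D (80 nM final) preincubated 5 min at room temperature with compound in 50 mM Tris, 1 M NaCl, pH 7.5. Z-L-Lys-SBz and DTNB added at 100 μM each; A405 followed every 30 s for 30 min. IC50 from nonlinear regression of rates versus concentration.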
On to `CCCCNC(=O)[C@@H]1C[C@@]2(C)C[C@H]2N1C(=O)Cn1nc(C(C)=O)c2cc(-c3cnc(C)nc3)ccc21` [Compound 488, (1R,3S,5R)-2-(2-(3-acetyl-5-(2-methylpyrimidin-5-yl)-1H-indazol-1-yl)acetyl)-N-butyl-5-methyl-2-azabicyclo[3.1.0]hexane-3-carboxamide], for which the IC50 is below 1 µM.
The same measure, in the same setting: the value for `CC(=O)c1nn(CC(=O)N2[C@H](C(=O)Nc3cc(C)cc(Br)n3)C[C@@]3(C)C[C@@H]23)c2ccc(-c3cnc(C)nc3)cc12` [Compound 492, (1R,3S,5R)-2-(2-(3-acetyl-5-(2-methylpyrimidin-5-yl)-1H-indazol-1-yl)acetyl)-N-(6-bromo-4-methylpyridin-2-yl)-5-methyl-2-azabicyclo[3.1.0]hexane-3-carboxamide] was below 1 µM; that for `CC(=O)c1nn(CC(=O)N2[C@H](C(=O)Nc3cc(C(=O)O)cc(Br)n3)C[C@@]3(C)C[C@@H]23)c2ccc(-c3cnc(C)nc3)cc12` [Compound 493, 2-[(1R,3S,5R)-2-{2-[3-Acetyl-5-(2-methylpyrimidin-5-yl)indazol-1-yl]acetyl}-5-methyl-2-azabicyclo[3.1.0]hexane-3-amido]-6-bromopyridine-4-carboxylic Acid] was below 1 µM.
The same measure, in the same setting: the value for `COc1cc(-c2cnc(C)nc2)cc2c(C(C)=O)nn(CC(=O)N3[C@H](C(=O)Nc4nc(Br)ccc4C)C[C@@]4(C)C[C@@H]34)c12` [Compound 494, (1R,3S,5R)-2-(2-(3-acetyl-7-methoxy-5-(2-methylpyrimidin-5-yl)-1H-indazol-1-yl)acetyl)-N-(6-bromo-3-methylpyridin-2-yl)-5-methyl-2-azabicyclo[3.1.0]hexane-3-carboxamide] was below 1 µM; that for `CC(=O)c1nn(CC(=O)N2[C@H](C(=O)NCC(=O)O)C[C@@]3(C)C[C@@H]23)c2c(C)cc(-c3cnc(C)nc3)cc12` [Compound 495, ((1R,3S,5R)-2-(2-(3-acetyl-7-methyl-5-(2-methylpyrimidin-5-yl)-1H-indazol-1-yl)acetyl)-5-methyl-2-azabicyclo[3.1.0]hexane-3-carbonyl)glycine] was 1 to 10 µM; that for `CC(=O)c1nn(CC(=O)N2[C@H](C(=O)NCCC(=O)O)C[C@@]3(C)C[C@@H]23)c2c(C)cc(-c3cnc(C)nc3)cc12` [Compound 497, 3-((1R,3S,5R)-2-(2-(3-acetyl-7-methyl-5-(2-methylpyrimidin-5-yl)-1H-indazol-1-yl)acetyl)-5-methyl-2-azabicyclo[3.1.0]hexane-3-carboxamido)propanoic acid] was below 1 µM.

The same assay, now with this note: Table 8; Factor D 80 nM, substrate Z-L-Lys-SBz; read-out: IC50.
Turning to `Cc1ncc(-c2ccc3c(c2)c(C(=O)NCCN)nn3CC(=O)N2[C@H](C(=O)Nc3nc(Br)ccc3C)C[C@@]3(C)C[C@@H]23)cn1` [Compound 489, N-(2-aminoethyl)-1-(2-((1R,3S,5R)-3-((6-bromo-3-methylpyridin-2-yl)carbamoyl)-5-methyl-2-azabicyclo[3.1.0]hexan-2-yl)-2-oxoethyl)-5-(2-methylpyrimidin-5-yl)-1H-indazole-3-carboxamide], the IC50 was 1 to 10 µM.
Same read-out and setting: the value for `CNCCNC(=O)c1nn(CC(=O)N2[C@H](C(=O)Nc3nc(Br)ccc3C)C[C@@]3(C)C[C@@H]23)c2ccc(-c3cnc(C)nc3)cc12` [Compound 490, 1-(2-((1R,3S,5R)-3-((6-bromo-3-methylpyridin-2-yl)carbamoyl)-5-methyl-2-azabicyclo[3.1.0]hexan-2-yl)-2-oxoethyl)-N-(2-(methylamino)ethyl)-5-(2-methylpyrimidin-5-yl)-1H-indazole-3-carboxamide] was 1 to 10 µM; that for `Cc1ncc(-c2ccc3c(c2)c(C(=O)NCCN(C)C)nn3CC(=O)N2[C@H](C(=O)Nc3nc(Br)ccc3C)C[C@@]3(C)C[C@@H]23)cn1` [Compound 491, 1-(2-((1R,3S,5R)-3-((6-bromo-3-methylpyridin-2-yl)carbamoyl)-5-methyl-2-azabicyclo[3.1.0]hexan-2-yl)-2-oxoethyl)-N-(2-(dimethylamino)ethyl)-5-(2-methylpyrimidin-5-yl)-1H-indazole-3-carboxamide] was above 10 µM.
